From publication PMC10854695, “Using Flavonoid Substitution Status to Predict Anticancer Effects in Human Melanoma Cancers: An In Vitro Study” (Cancers, 2024)

Key:
[1] = MTT cell viability assay, normal cells; details: human;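 note: fibroblasts served as non-cancer comparison line for selectivity versus melanoma cells, MTT reduction read as absorbance at 570 nm after 2 h dye exposure, compounds in ≤0.1% DMSO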
Method: (§1) The MTT colorimetric assay was performed as a preliminary evaluation of the cytotoxicity of the selected flavonoids according to the method described and validated by Strawa et al. [21]. Briefly, melanoma cells and fibroblasts were seeded in 96-well microplates at a density of 1 × 10^4 cells per well. Fibroblasts were used as a control cell line in order to assess the selectivity of the compounds. […] Subsequently, the cells were washed with PBS, incubated with MTT solution for 2 h, and lysed with dimethyl sulfoxide (DMSO) supplemented with 1% (v/v) Sorensen’s glycine buffer. The absorbance was measured using a microplate reader (EPOCH 2, BioTek, Winooski, VT, USA) at a wavelength of 570 nm. The compounds were used at a final DMSO concentration of no more than 0.1% (v/v) in each well. The results were generated from at least three independent experiments. […] The IC50 values were calculated with GraphPad Prism 9 software (GraphPad Software, San Diego, CA, USA).

A375 melanoma cells [2] = experiment: Neutral red uptake (NRU) assay, A375; details: Homo sapiens, read-out: IC50, cytotoxic activity, NRU assay
Method: (§2) The NRU (neutral red uptake) was conducted as previously described by Szoka and co-workers, with some modifications [22]. Briefly, melanoma cells and fibroblasts were seeded in microplates at the density of 1 × 10^4 cells per well and allowed to adhere for 24 h. […] After treatment, the culture medium was replaced with a neutral red solution (40 µg/mL). An additional 2 h of incubation was performed. The neutral red solution was then removed and the neutral red accumulated in the cells was dissolved in 50% EtOH with 1% of the glacial acetic acid. The absorbance was estimated at 540 nm and IC50 values were calculated using GraphPad Prism software (GraphPad Software, San Diego, CA, USA).

C32 melanoma cells [3] = experiment: MTT cell viability assay, C32; details: Homo sapiens, read-out: IC50, cytotoxic activity, MTT test;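 note: MTT added for 2 h, cells lysed in DMSO, absorbance read at 570 nm, compound vehicle kept at or below 0.1% DMSO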
Method: as §1

C32 melanoma cells [4] = experiment: Neutral red uptake (NRU) assay, C32; details: Homo sapiens
Method: as §2

[5] = Neutral red uptake (NRU) assay, normal cells; details: human
Method: as §2

A375 melanoma cells [6] = experiment: MTT cell viability assay, A375; details: Homo sapiens;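 note: Read-out is formazan absorbance at 570 nm after 2 h with MTT, with compounds in at most 0.1% v/v DMSO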
Method: as §1

[7] = human skin fibroblasts (CCD25Sk)
[8] = C32, 24 h, read-out: IC50, cytotoxic activity, NRU assay, C32, 24 h
[9] = C32, 48 h, read-out: IC50, cytotoxic activity, NRU assay, C32, 48 h
[10] = C32, 72 h, read-out: IC50, cytotoxic activity, NRU assay, C32, 72 h
[11] = A-375, 24 h, read-out: IC50, cytotoxic activity, MTT test, A375, 24 h
[12] = A-375, 48 h, read-out: IC50, cytotoxic activity, MTT test, A375, 48 h
[13] = A-375, 72 h, read-out: IC50, cytotoxic activity, MTT test, A375, 72 h
[14] = C32, 24 h, read-out: IC50, cytotoxic activity, NRU assay
[15] = C32, 48 h, read-out: IC50, cytotoxic activity, NRU assay
[16] = C32, 72 h, read-out: IC50, cytotoxic activity, NRU assay
[17] = A-375, 24 h, read-out: IC50, cytotoxic activity, MTT test
[18] = A-375, 48 h, read-out: IC50, cytotoxic activity, MTT test
[19] = A-375, 72 h, read-out: IC50, cytotoxic activity, MTT test

Compound | IC50 at 24 h [1, 7] | IC50 at 48 h [1, 7] | IC50 at 72 h [1, 7] | IC50 (A375 melanoma cells [2]; A-375, 24 h) | IC50 (A375 melanoma cells [2]; A-375, 48 h) | IC50 (A375 melanoma cells [2]; A-375, 72 h) | IC50 (C32 melanoma cells [3]; C32, 24 h) | IC50 (C32 melanoma cells [3]; C32, 48 h) | IC50 (C32 melanoma cells [3]; C32, 72 h) | IC50 (C32 melanoma cells [4]; [8]) | IC50 (C32 melanoma cells [4]; [9]) | IC50 (C32 melanoma cells [4]; [10]) | IC50 at 24 h [5, 7] | IC50 at 48 h [5, 7] | IC50 at 72 h [5, 7] | IC50 (A375 melanoma cells [6]; [11]) | IC50 (A375 melanoma cells [6]; [12]) | IC50 (A375 melanoma cells [6]; [13]) | other results
O=c1c(O)c(-c2ccc(O)c(O)c2)oc2cc(O)cc(O)c12 [Compound 24, quercetin] | > 200 µM | > 200 µM | 36.1 ± 2 µM | 100 to 200 µM | 84.7 ± 6.5 µM | 79.2 ± 7.3 µM | > 200 µM | > 200 µM | 68.1 ± 4.6 µM | > 200 µM | 58 ± 3.5 µM | 47.5 ± 4.3 µM | > 200 µM | 92.6 ± 4.2 µM | 36.4 ± 0.23 µM | > 200 µM | > 200 µM | 74.4 ± 5 µM | 
COc1cc(O)c2c(=O)c(O)c(-c3ccc(O)c(O)c3)oc2c1 [Compound 25, 7-methoxyquercetin] | 100 to 200 µM | 45.3 ± 2.3 µM | 35.7 ± 2.9 µM | > 200 µM | 63.4 ± 4.8 µM | 43.7 ± 3.5 µM | > 200 µM | 100 to 200 µM | 37.7 ± 2.5 µM | > 200 µM | 55.4 ± 4.3 µM | 28.4 ± 2.5 µM | > 200 µM | 66.3 ± 5.6 µM | 38.4 ± 3.4 µM | 100 to 200 µM | 42.1 ± 3 µM | 25.1 ± 2.3 µM | 
COc1cc(-c2oc3cc(O)cc(O)c3c(=O)c2O)ccc1O [Compound 26, 3′-methoxyquercetin] |  |  |  | > 200 µM | 100 to 200 µM | 78.1 ± 6.5 µM | > 200 µM | 100 to 200 µM | 49.3 ± 3.6 µM |  |  |  |  |  |  |  |  |  | IC50 at 24 h [1]: 100 to 200 µM; IC50 at 48 h [1]: 68.5 ± 5.4 µM; IC50 at 72 h [1]: 46.2 ± 3.3 µM; IC50 (C32 melanoma cells [4]; [14]): > 200 µM; IC50 (C32 melanoma cells [4]; [15]): 100 to 200 µM; IC50 (C32 melanoma cells [4]; [16]): 65.1 ± 4 µM; IC50 at 24 h [5]: > 200 µM; IC50 at 48 h [5]: 78.7 ± 5.5 µM; IC50 at 72 h [5]: 69.2 ± 4.6 µM; IC50 (A375 melanoma cells [6]; [17]): 86.3 ± 5.9 µM; IC50 (A375 melanoma cells [6]; [18]): 68.5 ± 3.9 µM; IC50 (A375 melanoma cells [6]; [19]): 50.8 ± 4 µM
O=C(O)C1OC(Oc2c(-c3ccc(O)c(O)c3)oc3cc(O)cc(O)c3c2=O)C(O)C(O)C1O (stereo not drawn) [Compound 27, quercetin 3-O-glucuronide] | > 200 µM | > 200 µM | > 200 µM | > 200 µM | > 200 µM | > 200 µM | > 200 µM | > 200 µM | > 200 µM | > 200 µM | > 200 µM | 100 to 200 µM | > 200 µM | > 200 µM | > 200 µM | > 200 µM | > 200 µM | > 200 µM | 
C[C@@H]1O[C@@H](OC[C@H]2O[C@@H](Oc3c(-c4ccc(O)c(O)c4)oc4cc(O)cc(O)c4c3=O)[C@H](O)[C@@H](O)[C@@H]2O)[C@H](O)[C@H](O)[C@H]1O [Compound 28, quercetin 3-O-rutinoside] | > 200 µM | > 200 µM | > 200 µM | > 200 µM | > 200 µM | > 200 µM | > 200 µM | > 200 µM | > 200 µM | > 200 µM | > 200 µM | > 200 µM | > 200 µM | > 200 µM | > 200 µM | > 200 µM | 57 ± 3.1 µM | 57.8 ± 4.8 µM | 
CC1OC(OCC2OC(Oc3c(-c4ccc(O)c(O)c4)oc4cc(OC5OC(CO)C(O)C(O)C5O)cc(O)c4c3=O)C(O)C(O)C2O)C(O)C(O)C1O (stereo not drawn) [Compound 29, quercetin 3-O-rutinoside-7-O-glucoside] | > 200 µM | > 200 µM | > 200 µM | > 200 µM | > 200 µM | > 200 µM | > 200 µM | > 200 µM | > 200 µM | > 200 µM | > 200 µM | > 200 µM | > 200 µM | > 200 µM | > 200 µM | > 200 µM | > 200 µM | > 200 µM | 
COc1cc(-c2cc(=O)c3c(O)cc(O)cc3o2)cc(OC)c1O [Compound 31, tricin] |  |  |  | > 200 µM | > 200 µM | > 200 µM | > 200 µM | 100 to 200 µM | 100 to 200 µM |  |  |  |  |  |  |  |  |  | IC50 at 24 h [1]: 100 to 200 µM; IC50 at 48 h [1]: 80.3 ± 6.6 µM; IC50 at 72 h [1]: 56.4 ± 4.7 µM; IC50 (C32 melanoma cells [4]; [14]): > 200 µM; IC50 (C32 melanoma cells [4]; [15]): > 200 µM; IC50 (C32 melanoma cells [4]; [16]): > 200 µM; IC50 at 24 h [5]: > 200 µM; IC50 at 48 h [5]: > 200 µM; IC50 at 72 h [5]: > 200 µM; IC50 (A375 melanoma cells [6]; [17]): > 200 µM; IC50 (A375 melanoma cells [6]; [18]): 100 to 200 µM; IC50 (A375 melanoma cells [6]; [19]): 100 to 200 µM
